Measurements published in patent publication US20250179057A1, “MEK IMMUNE ONCOLOGY INHIBITORS AND THERAPEUTIC USES THEREOF” (Immuneering Corporation, priority 2022, published 2025).
Values after ≈ are worked out from the molar mass of the structure shown. Like-named read-outs stand apart in the source and are kept apart here.

What was measured:
[1] = Plasma stability, human plasma (K2EDTA); format: in vitro ADME; conditions: human plasma, 2 μM, anti-coagulant K2-EDTA; for % Remaining at T120: 120 min
Protocol: Individual stock solutions of propantheline and lovastatin were prepared at 10 mM in DMSO and were further diluted to 2 mM with DMSO.
Frozen matrices (Balb/c mouse, Wistar Han rat, Beagle dog, and human plasma containing K2EDTA as anti-coagulant) were thawed and centrifuged at 3100 rpm for 10 minutes at 4° C. to remove particulates. The lipid layer was then removed, and the supernatant was transferred to a new tube without disturbing the pellet. After the matrices were incubated at 37° C. for at least 10 minutes, the pH of each matrix was adjusted to pH 7.4, using 10% phosphoric acid or 1N sodium hydroxide as necessary. Test and control article stock solutions were spiked (2 μL) into matrix (1.998 mL) and mixed to final assay concentration of […]. Duplicate 30-μL aliquots of spiked plasma were transferred to matrix tubes in 96-well plate immediately after spiking for timepoints of 0, 30, 60, 120, 240, and 360 minutes. These tubes were then incubated at 37° C. with shaking and at each timepoint, the corresponding tubes containing samples were quenched with 180 μL of cold acetonitrile containing the internal standards. The quenched samples were vortex-mixed briefly and stored refrigerated. After the final time point (360 minutes), the plates with all quenched samples were vortex-mixed for 10 minutes and then centrifuged at 3100 rpm for 10 minutes at 4° C. to sediment the precipitated protein. The supernatant (50 μL) was transferred to a clean 96-well plate and diluted with 100 μL of water. The plates were stored refrigerated until analysis.
Data Analysis: Peak area ratios for IS-normalized test article and control article counts were used to calculate the percent remaining relative to the time zero (T0) value. As appropriate, results were plotted and further analyzed to calculate half-life (T1/2) values.
Mean peak area ratios were used to calculate the % remaining relative to the T0 value:
In this study, human, cynomolgus monkey, beagle dog, wistar hannover rat, and balb/c plasma stability was determined. Table 28 describes the results of the human plasma stability at 2 μM concentration and anti-coagulant K2-EDTA from 10 to 120 min. Table 29 describes the results of the cynomolgus monkey plasma stability at 2 μM concentration and anti-coagulant K2-EDTA. Table 30 describes the results of the beagle dog plasma stability at 2 μM concentration and anti-coagulant K2-EDTA. Table 31 describes the results of the wistar hannover rat plasma stability at 2 μM concentration and anti-coagulant K2-EDTA. Table 32 describes the results of the balb/c plasma stability at 2 μM concentration and anti-coagulant K2-EDTA.

[2] = Kinetic solubility (PBS pH 7.4; 4 hr); format: physicochemical; conditions: for solubility kinetic at 4 h: free base (Table 19), read-out: Kinetic Solubility
Outline: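 Compound shaken in PBS pH 7.4 for 4 h at room temperature, then centrifuged. Supernatant, diluted with DMSO, quantified by LC-UV peak area against DMSO calibration curves.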

[3] = Mouse pharmacokinetics (oral cassette dosing), plasma; format: in vivo; conditions: BALB/c immunocompetent mice, 5 mg/kg p.o.
Protocol: Female mice (BALC/c) received a single dose (3 mice/treatment) of vehicle (10% 1N HCl:90% [20% […]) and at 0.5, 1, 2, 4, 8, 12 and 24-hour post dose humanely euthanized.
Blood was obtained through cardiac puncture into K+EDTA tubes, mixed by inversion and centrifuged to obtain the plasma. Blood will be kept on ice or at approximately 4° C. prior. Centrifugation will take place within 30 minutes of blood collection affording plasma samples. Plasma samples will be frozen as soon as possible after centrifugation and stored at −80° C. until analysis. All samples will be analysed by means of LC-MS/MS. Method development for bioanalysis will be performed by pharmacokinetics Department of Crown Bioscience (Taicang) Inc. using LC-MS/MS analysis (using Waters HSS T3 2.1×50 mm (1.8 um) LC column, and an API-4000 Electrospray MS unit). The results of a kinetic solubility (free base) study are represented in Table 19.

human hepatocytes = assay: Hepatocyte stability, human; format: in vitro ADME; conditions: 2 μM, 0.5 million cells/ml
Protocol: (§1) In this study, human, cynomolgus monkey, beagle dog, wistar hannover rat, and balb/c mouse hepatocyle stability was determined.

[4] = Hepatocyte stability, cynomolgus monkey; format: in vitro ADME; conditions: 0.5 million cells/ml; for CLint scaled at 2 μM: cynomolgus monkey, hepatocytes
Protocol: as §1

balb/c mouse hepatocytes = assay: Hepatocyte stability, balb/c mouse; format: in vitro ADME; conditions: 2 μM, 0.5 million cells/ml
Protocol: as §1

[5] = Caco-2 bidirectional permeability (absorption & efflux); conditions: human
CYP1A2 = molecular target: T1, CYP1A2 (Homo sapiens, UniProt P05177); assay: CYP450 panel inhibition in human liver microsomes, 1A2 (phenacetin); conditions: for CYP-1A2 (Phenacetin) mean percentage CYP inhibition: human liver microsomes, 10 μM, substrate phenacetin
T1 sequence (P05177 1-516): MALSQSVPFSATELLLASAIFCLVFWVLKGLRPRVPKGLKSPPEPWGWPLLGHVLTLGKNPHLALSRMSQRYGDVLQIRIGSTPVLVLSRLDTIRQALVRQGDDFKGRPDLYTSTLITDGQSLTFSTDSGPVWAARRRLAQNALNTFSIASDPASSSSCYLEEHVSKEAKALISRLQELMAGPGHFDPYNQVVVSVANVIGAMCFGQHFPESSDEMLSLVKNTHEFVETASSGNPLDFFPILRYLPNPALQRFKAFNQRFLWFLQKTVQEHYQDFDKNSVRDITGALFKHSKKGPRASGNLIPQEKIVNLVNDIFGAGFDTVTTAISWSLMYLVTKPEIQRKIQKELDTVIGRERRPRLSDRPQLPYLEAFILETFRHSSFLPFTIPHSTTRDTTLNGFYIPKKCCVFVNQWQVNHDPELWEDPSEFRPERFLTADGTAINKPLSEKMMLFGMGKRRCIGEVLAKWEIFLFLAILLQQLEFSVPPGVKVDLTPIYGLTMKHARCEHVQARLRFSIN

CYP3A4 = CYP3A4 (Homo sapiens, UniProt P08684); assay: CYP450 panel inhibition in human liver microsomes, 3A4 (midazolam / testosterone); conditions: 10 μM; for CYP-3A4 (Midazolam) mean percentage CYP inhibition: substrate midazolam; for CYP-3A4 (Testosterone) mean percentage CYP inhibition: substrate testosterone
CYP3A4, sequence (P08684 whole entry): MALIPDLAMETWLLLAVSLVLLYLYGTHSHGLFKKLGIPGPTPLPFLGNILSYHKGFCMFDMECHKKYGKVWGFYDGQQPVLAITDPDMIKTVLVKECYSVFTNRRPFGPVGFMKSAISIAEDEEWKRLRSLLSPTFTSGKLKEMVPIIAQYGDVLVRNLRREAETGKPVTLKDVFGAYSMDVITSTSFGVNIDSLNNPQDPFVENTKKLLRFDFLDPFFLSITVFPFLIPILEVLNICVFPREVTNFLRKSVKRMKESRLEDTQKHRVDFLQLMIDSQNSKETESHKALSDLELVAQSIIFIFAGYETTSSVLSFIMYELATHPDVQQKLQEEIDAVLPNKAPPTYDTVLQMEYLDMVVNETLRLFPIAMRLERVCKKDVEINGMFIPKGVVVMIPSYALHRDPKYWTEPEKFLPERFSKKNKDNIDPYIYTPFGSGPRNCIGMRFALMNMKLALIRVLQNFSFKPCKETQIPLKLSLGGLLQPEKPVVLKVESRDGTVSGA

Compound | % Remaining at T120 [1] [%] | % Remaining At T120 (human hepatocytes; 120 min) [%] | % Remaining At T120 (balb/c mouse hepatocytes) [%] | CYP-3A4 (Midazolam) mean percentage CYP inhibition (CYP3A4) [%] | CYP-3A4 (Testosterone) mean percentage CYP inhibition (CYP3A4) [%] | T1/2 ([1]; 10 to 120 min) [h] | solubility kinetic at 4 h [2] [µM] | AUC0-∞ [3] [ng·h/mL] | AUC(0-t) [3] [ng·h/mL] | Cmax [3] [ng/mL] | T1/2 [3] [h] | Tmax [3] [min] | CLint (L/hr/kg) (human hepatocytes) [L/h/kg] | CLint (mL/min/kg) (human hepatocytes) | CLint (L/hr/kg) (balb/c mouse hepatocytes) [L/h/kg] | CLint (mL/min/kg) (balb/c mouse hepatocytes) | T1/2 (balb/c mouse hepatocytes) [h] | CYP-1A2 (Phenacetin) mean percentage CYP inhibition (CYP1A2) [%] | further results
CCN(C)Cc1c(Cc2cccc(NS(=O)(=O)NC)c2Cl)c(=O)oc2cc(OC(=O)N(C)C)ccc12 [Compound 245, 3-(2-chloro-3-((N-methylsulfamoyl)amino)benzyl)-4-((ethyl(methyl)amino)methyl)-2-oxo-2H-chromen-7-yl dimethylcarbamate] | 106.8 | 13.9 | 52.8 | 42.3 | 72.8 | – | – | – | – | – | – | – | – | – | – | – | – | – | half-life at 2 μM ([1]; pH 7.4, 10 to 120 min, read-out: T1/2): > 2 h; solubility kinetic at 4 h ([2]; PBS buffer, pH 7.4, aqueous buffer, kinetic from dmso stock): 28 µM (≈ 15 µg/mL); AUC(0-t) ([3]; female, mouse, read-out: AUC0-t): 154 ng·h/mL; Cmax ([3]; female, mouse, read-out: Cmax): 384 ng/mL; Tmax ([3]; female, mouse, read-out: Tmax): 4.98 min; half-life at 2 μM ([4]; cynomolgus monkey hepatocytes): 0.407 h; CLint scaled at 2 μM ([4]; read-out: CLint (L/hr/kg) (converted)): 13.8 L/h/kg; CLint scaled at 2 μM ([4]; read-out: CLint (mL/min/kg)): 13.8 L/h/kg; Papp A→B at 2 h, 10 μM [5]: 11.9 ×10⁻⁶ cm/s; Papp B→A at 2 h, 10 μM [5]: 6.87 ×10⁻⁶ cm/s; efflux ratio at 2 h, 10 μM [5]: 0.578; inhibition at 30 min, 10 µM (CYP1A2; human, microsomes, pH 7.4): -0.3%
CNS(=O)(=O)Nc1cccc(Cc2c(CN(C)C)c3cc(F)c(OC(=O)N(C)C)cc3oc2=O)c1F [Compound 25] | 112.1 | 99.9 | 72.0 | 48.5 | 47.2 | >2 | >80 | 1426 | 1336 | 1037 | 1.1 | 4.98 | 0.00218 | 0.0363 | 3.88 | 64.7 | 4.22 | 7.9 | –
CNS(=O)(=O)Nc1cccc(Cc2c(CN(C)C)c3ccc(OC(=O)N(C)C)cc3oc2=O)c1F [Compound 9] | 99.8 | 48.9 | 73.8 | 9.6 | 30.9 | >2 | >80 | 445 | 441 | 725 | 1.1 | 4.98 | 1.93 | 32.2 | 3.58 | 59.7 | 4.57 | 2.8 | Kinetic Solubility (PBS pH = 7.4; 4 hr) ([2]; PBS pH = 7.4, 4 hr (Table 8)): >80 uM; T1/2 (human hepatocytes; 120 min): 1.93 h
